From patent publication US5220029A, “Synthetic proteolytic substrate” (Vitek Systems, Inc., priority 1990, dated 1993)
Several values for one entry are separate records, joined by “and”; a condition that tells them apart may be missing. Identical values can stand only once.

Key:
[1] = system: trypsin; assay: Determination of kinetic constants for the trypsin catalyzed hydrolysis (continuous assay); type: biochemical; details: triplicate
Source text: (§1) The invention may be more thoroughly understood by reference to the included examples which describe the synthesis of amides of the type RCO-MBTH (Examples 1-15) and a continuous enzyme assay (Example 16). A disconintuous assay is illustrated in Example 17. Example 18 is a determination of the kinetic catalytic constant (kc) and binding constant (Km) for trypsin-catalyzed hydrolysis of an RCO-MBTH substrate by the continuous assay method.
Determination of the Kinetic Constants for the Trypsin Catalyzed Hydrolysis of N-(N-t-butoxycarbonyl)-L-Arginyl 3-methyl benzothiazolinone hydrazone (continuous assay)
In a one-cm. cuvette were mixed 3.0 mL of 0.02M tris buffer, pH 7.8, containing 0.02M 3-dimethylamino benzoic acid (DMAB) 0.1 mL of 0.065M potassium ferricyanide, and 0.1 mL of substrate (Boc-ARG-MBTH). The reaction was initiated by the addition of 0.1 mL of trypsin (2.33×10^-4 M in 0.1M pyrophosphate buffer, pH 8.3). Eight concentrations of substrate, from 9.98×10^-4 M to 7.8×10^-6 M, were assayed in triplicate. The increase in absorption at 590 nm was monitored continuously and the initial rates were determined. Under the conditions of the assay, a molar absorptivity of 57,000 was used to determine the concentration of the chromogen (MBTH-DMAB) produced by the hydrolysis of substrate. Table I contains the date used to determine the binding and kinetic constants (Km, kc).

[2] = system: trypsin; assay: Continuous assay for trypsin (saturation kinetics), color development by DMAB/ferricyanide at 590 nm; type: biochemical; details: 1 μg trypsin, 0.14M Tris pH 7.8, substrate 1.74×10^-3, 5.8×10^-4 and 3.9×10^-4 M in triplicate
Source text: as §1
Saturation kinetics for N-(N-benzyloxycarbonyl)glycyl-L-prolyl-L-arginyl 3-methyl-2-benzothiazolinone hydrazone with trypsin
A continuous assay for trypsin was performed, i.e., the oxidizing and coupling reagents for color development were included with the substrate in the reaction mixture so that color development may be monitored on a continuous basis with time. In this example the dye precursor is developed to a dye without destroying the enzymatic activity of the enzyme. The reaction was initiated by the addition of 0.1 mL of enzyme (10 μg/mL) to 0.9 mL of buffer solution containing substrate (Z-GLY-PRO-ARG-MBTH) and color developing reagents. […] The increases in absorbance at 590 nm were monitored continuously for 5 minutes and the initial rates determined. Using the molar absorptivity of 57,000 for the chromogen produced (MBTH-DMAB), the average rate of hydrolysis was calculated to be 4.43+0.1×10^-6 mol min^-1.

Compound | 1/V ([1]; 1/s 100 M^-1) | 1/V ([1]; 1/s 200 M^-1) | 1/V ([1]; 1/s 401 M^-1) | 1/V ([1]; 1/s 802 M^-1) | 1/V ([1]; 1/s 1603 M^-1) | 1/V ([1]; 1/s 2305 M^-1) | 1/V ([1]; 1/s 6413 M^-1) | 1/V ([1]; 1/s 12826 M^-1) | average rate of hydrolysis [2]
Cn1c(=NNC(=O)[C@H](CCCNC(=N)N)NC(=O)OC(C)(C)C)sc2ccccc21 [Boc-ARG-MBTH, N-(N-t-butoxycarbonyl)-L-Arginyl 3-methyl benzothiazolinone hydrazone] | 0.000565 min/M and 0.000528 min/M and 0.000625 min/M | 0.000699 min/M and 0.000742 min/M | 0.000766 min/M and 0.00088 min/M and 0.000819 min/M | 0.001033 min/M and 0.00108 min/M and 0.001188 min/M | 0.001697 min/M and 0.001827 min/M | 0.002969 min/M and 0.003393 min/M | 0.005056 min/M and 0.00528 min/M | 0.009901 min/M and 0.009506 min/M | 
Cn1c(=NNC(=O)[C@H](CCCNC(=N)N)NC(=O)[C@@H]2CCCN2C(=O)CNC(=O)OCc2ccccc2)sc2ccccc21 [Z-GLY-PRO-ARG-MBTH, N-(N-benzyloxycarbonyl)glycyl-L-prolyl-L-arginyl 3-methyl-2-benzothiazolinone hydrazone] |  |  |  |  |  |  |  |  | 4.43+0.1×10^-6 mol min^-1
